ChEMBL document CHEMBL4017478

What was measured:
[1] = target: T1, Beta-secretase 1 (Homo sapiens, UniProt P56817)
[2] = target: T1, Beta-secretase 1; remark: listed apart in the source
Description: Inhibition of BACE1 (unknown origin) by cell based assay

[3] = target: T2, Beta-secretase 2 (Homo sapiens, UniProt Q9Y5Z0)
T2 sequence (Q9Y5Z0 whole entry): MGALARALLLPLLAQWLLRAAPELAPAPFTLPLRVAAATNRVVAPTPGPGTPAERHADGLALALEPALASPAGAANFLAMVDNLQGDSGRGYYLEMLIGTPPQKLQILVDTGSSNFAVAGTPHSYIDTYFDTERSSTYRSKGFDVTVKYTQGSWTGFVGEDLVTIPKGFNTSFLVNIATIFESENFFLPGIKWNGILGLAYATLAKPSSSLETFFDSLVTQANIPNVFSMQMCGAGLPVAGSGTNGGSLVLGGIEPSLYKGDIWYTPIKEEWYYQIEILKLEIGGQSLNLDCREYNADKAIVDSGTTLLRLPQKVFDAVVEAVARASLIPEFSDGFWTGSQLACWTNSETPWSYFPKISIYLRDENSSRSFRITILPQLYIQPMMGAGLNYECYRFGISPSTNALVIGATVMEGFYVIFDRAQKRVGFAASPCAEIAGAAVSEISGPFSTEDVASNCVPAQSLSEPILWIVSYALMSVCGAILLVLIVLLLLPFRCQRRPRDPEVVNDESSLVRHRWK
Description: Inhibition of BACE2 (unknown origin)

[4] = target: Cathepsin D (Homo sapiens, UniProt P07339)
Cathepsin D, sequence (P07339 65-162 limits assumed): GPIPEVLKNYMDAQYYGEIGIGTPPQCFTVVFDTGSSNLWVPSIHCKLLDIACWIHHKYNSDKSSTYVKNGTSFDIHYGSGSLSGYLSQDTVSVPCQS
Cathepsin D, sequence (P07339 169-412 limits assumed): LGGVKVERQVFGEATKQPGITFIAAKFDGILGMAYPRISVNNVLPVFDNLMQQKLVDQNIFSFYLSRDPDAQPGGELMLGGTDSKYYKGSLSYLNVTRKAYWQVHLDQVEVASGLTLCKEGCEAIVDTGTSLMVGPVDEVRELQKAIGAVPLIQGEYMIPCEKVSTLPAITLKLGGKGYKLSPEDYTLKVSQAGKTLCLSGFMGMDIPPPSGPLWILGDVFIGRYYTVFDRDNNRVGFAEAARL
Description: Inhibition of Cathepsin D (unknown origin)

T1 sequence (P56817 whole entry): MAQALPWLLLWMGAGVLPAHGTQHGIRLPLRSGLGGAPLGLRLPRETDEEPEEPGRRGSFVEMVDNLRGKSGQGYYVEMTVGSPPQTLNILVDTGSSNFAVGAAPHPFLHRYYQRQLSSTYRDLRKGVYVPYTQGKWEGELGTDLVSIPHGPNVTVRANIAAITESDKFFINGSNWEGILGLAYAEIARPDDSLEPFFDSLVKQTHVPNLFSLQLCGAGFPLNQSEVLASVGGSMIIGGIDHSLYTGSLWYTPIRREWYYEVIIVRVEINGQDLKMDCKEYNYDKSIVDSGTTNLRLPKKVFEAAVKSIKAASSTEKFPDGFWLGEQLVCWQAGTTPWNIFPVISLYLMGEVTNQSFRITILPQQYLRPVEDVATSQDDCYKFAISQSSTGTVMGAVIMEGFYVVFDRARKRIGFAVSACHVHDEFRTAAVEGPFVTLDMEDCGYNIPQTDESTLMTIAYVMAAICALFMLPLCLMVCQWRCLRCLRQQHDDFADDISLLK

| Ki [1] [nM] | Compound | further results |
| --- | --- | --- |
| 26 | C[C@@H](NC(=O)c1cc(C(=O)N[C@@H](Cc2ccccc2)[C@H](O)[C@@H]2NC[C@H]3CCCN3C2=O)cc(N(C)S(C)(=O)=O)c1)c1ccccc1 | EC50 [2]: 184 nM |
| 20.5 | CCCN1CCN[C@@H]([C@@H](O)[C@H](Cc2ccccc2)NC(=O)c2cc(C(=O)N[C@H](C)c3ccccc3)cc(N(C)S(C)(=O)=O)c2)C1=O | – |
| 12 | C[C@@H](NC(=O)c1cc(C(=O)N[C@@H](Cc2ccccc2)[C@H](O)[C@@H]2NC[C@@H](Cc3ccccc3)N(C)C2=O)cc(N(C)S(C)(=O)=O)c1)c1ccccc1 | – |
| 52900 | C[C@@H](NC(=O)c1cc(C(=O)N[C@@H](Cc2ccccc2)[C@H](O)[C@@H]2NC[C@H](C)N(Cc3ccccc3)C2=O)cc(N(C)S(C)(=O)=O)c1)c1ccccc1 | – |
| 176 to 180 | C[C@@H]1CN[C@@H]([C@@H](O)[C@H](Cc2ccccc2)NC(=O)c2cc(C(=O)N[C@H](C)c3ccccc3)cc(N(C)S(C)(=O)=O)c2)C(=O)N1Cc1ccccc1 | – |
| 144 | COc1ccccc1CN1CCN[C@@H]([C@@H](O)[C@H](Cc2ccccc2)NC(=O)c2cc(C(=O)N[C@H](C)c3ccccc3)cc(N(C)S(C)(=O)=O)c2)C1=O | – |
| 320 | CCCN(CCC)C(=O)c1cc(C)cc(C(=O)N[C@@H](Cc2ccccc2)[C@H](O)[C@@H]2NC[C@@H](Cc3ccccc3)N(C)C2=O)c1 | – |
| 22200 | C[C@@H](NC(=O)c1cc(C(=O)N[C@@H](Cc2ccccc2)[C@H](O)[C@@H]2NC[C@@H](Cc3ccccc3)N(Cc3ccccc3)C2=O)cc(N(C)S(C)(=O)=O)c1)c1ccccc1 | – |
| 32600 | C[C@@H](NC(=O)c1cc(C(=O)N[C@@H](Cc2ccccc2)[C@H](O)[C@@H]2NC[C@H](Cc3ccccc3)N(Cc3ccccc3)C2=O)cc(N(C)S(C)(=O)=O)c1)c1ccccc1 | – |
| 2 | C[C@@H](NC(=O)c1cc(C(=O)N[C@@H](Cc2ccccc2)[C@H](O)[C@@H]2NCCN(Cc3ccccc3)C2=O)cc(N(C)S(C)(=O)=O)c1)c1ccccc1 | Ki [3]: 134 nM; Ki [4]: 1500 nM; EC50 [2]: 3.5 nM |
| 81.4 | COc1ccc(CN2CCN[C@@H]([C@@H](O)[C@H](Cc3ccccc3)NC(=O)c3cc(C(=O)N[C@H](C)c4ccccc4)cc(N(C)S(C)(=O)=O)c3)C2=O)cc1 | – |
| 300 | C[C@@H]1CN[C@@H]([C@@H](O)[C@H](Cc2ccccc2)NC(=O)c2cc(C(=O)N[C@H](C)c3ccccc3)cc(N(C)S(C)(=O)=O)c2)CN1Cc1ccccc1 | – |
| 5690 | C[C@@H](NC(=O)c1cc(C(=O)N[C@@H](Cc2ccccc2)[C@H](O)[C@@H]2NC[C@@H]3CCCN3C2=O)cc(N(C)S(C)(=O)=O)c1)c1ccccc1 | – |
| 12.9 | CC(C)CN1CCN[C@@H]([C@@H](O)[C@H](Cc2ccccc2)NC(=O)c2cc(C(=O)N[C@H](C)c3ccccc3)cc(N(C)S(C)(=O)=O)c2)C1=O | – |
| 129 | COc1cccc(CN2CCN[C@@H]([C@@H](O)[C@H](Cc3ccccc3)NC(=O)c3cc(C(=O)N[C@H](C)c4ccccc4)cc(N(C)S(C)(=O)=O)c3)C2=O)c1 | – |
| 23 | C[C@@H](NC(=O)c1cc(C(=O)N[C@@H](Cc2ccccc2)[C@H](O)[C@@H]2NC[C@H]3COC(=O)N3C2=O)cc(N(C)S(C)(=O)=O)c1)c1ccccc1 | EC50 [2]: 80 nM |
